Measured values reported in US9695155B2, “Herbicidal substituted pyrimidinyloxy benzene compounds” (E. I. DU PONT DE NEMOURS AND COMPANY, priority 2013, dated 2017).

Legend:
barnyardgrass [1] = assay: Test A preemergence; format: in vivo, Echinochloa crus-galli; settings: Echinochloa crus-galli, pre-emergence, 240 h
How it was run: (§1)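 Greenhouse pot test, loam/sand soil. Formulation: non-phytotoxic solvent mix plus surfactant. Pre: directed spray onto soil after sowing. Post: plants at 1–2 leaf, 2–10 cm. Rated visually vs untreated controls at ~10 d, 0 (no effect) to 100 (complete control).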

giant foxtail = assay: Test A preemergence; format: in vivo, Setaria faberii; settings: Setaria faberi, pre-emergence, 240 h
How it was run: as §1

pigweed [2] = assay: Test A preemergence; format: in vivo, Amaranthus retroflexus; settings: Amaranthus retroflexus, pre-emergence
How it was run: as §1

wheat = assay: Test A preemergence; format: in vivo, Triticum aestivum
How it was run: as §1

pigweed [3] = assay: Test A postemergence; format: in vivo, Amaranthus retroflexus; settings: Amaranthus retroflexus, post-emergence, 0 to 100 scale where 0 is no effect and 100 is complete control, read-out: Plant response rating, Pigweed
How it was run: as §1

velvetleaf = assay: Test A postemergence; format: in vivo, Abutilon theophrasti; settings: Abutilon theophrasti, post-emergence, 240 h, 0 to 100 scale where 0 is no effect and 100 is complete control, read-out: Plant response rating, Velvetleaf
How it was run: as §1

blackgrass = assay: Test C postemergence; format: in vivo, Alopecurus myosuroides; settings: Alopecurus myosuroides, post-emergence
How it was run: (§2)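 Seeds are planted in blended loam soil and sand and treated preemergence, while seedlings in a peat moss/vermiculite medium receive postemergence sprays at 2 to 18 cm height. All plants stay in the greenhouse for 13 to 15 days before visual comparison with controls on a 0–100 scale.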

galium = assay: Test C postemergence; format: in vivo, Galium aparine; settings: Galium, post-emergence
How it was run: as §2

large (Lg) crabgrass = assay: Test C postemergence; format: in vivo, Digitaria sanguinalis; settings: Digitaria sanguinalis, post-emergence
How it was run: as §2

johnsongrass = assay: Test C postemergence; format: in vivo, Sorghum halepense; settings: Sorghum halepense, post-emergence
How it was run: as §2

lambsquarters = assay: Test C postemergence; format: in vivo, Chenopodium album; settings: Chenopodium album, post-emergence
How it was run: as §2

barnyardgrass [4] = assay: Test C postemergence; format: in vivo, Echinochloa crus-galli; settings: Echinochloa crus-galli, post-emergence
How it was run: as §2

oilseed rape = assay: Test C postemergence; format: in vivo, Brassica napus; settings: Brassica napus, post-emergence
How it was run: as §2

waterhemp = assay: Test C postemergence; format: in vivo, Amaranthus rudis; settings: Amaranthus tuberculatus, post-emergence
How it was run: as §2

wild oat = assay: Test C postemergence; format: in vivo, Avena fatua; settings: Avena fatua, post-emergence
How it was run: as §2

For `N#Cc1cccc(Oc2ncc(F)cn2)c1-n1cc(C(F)(F)F)cn1` [Compound 79, 3-[(5-fluoro-2-pyrimidinyl)oxy]-2-[4-(trifluoromethyl)-1H-pyrazol-1-yl]benzonitrile], which pest or weed control at 125 g/ha (barnyardgrass [1]; 125 g ai/ha, 0 to 100 scale where 0 is no effect and 100 is complete control, read-out: Plant response rating, Barnyardgrass) is on record?
Its pest or weed control at 125 g/ha is 100%.

What about the pest or weed control at 500 g/ha (barnyardgrass [1]; 500 g ai/ha, 0 to 100 scale, 0 no effect, 100 complete control, approx. 10 days, read-out: Barnyardgrass plant response rating) of the same molecule?
The pest or weed control at 500 g/ha was 100%.

And the pest or weed control at 125 g/ha (giant foxtail; 125 g ai/ha, 0 to 100 scale where 0 is no effect and 100 is complete control, read-out: Plant response rating, Foxtail, Giant)?
The pest or weed control at 125 g/ha was 100%.

And the pest or weed control at 500 g/ha (giant foxtail; 500 g ai/ha, 0 to 100 scale, 0 no effect, 100 complete control, approx. 10 days, read-out: Foxtail, Giant plant response rating)?
The pest or weed control at 500 g/ha was 100%.

And the pest or weed control at 125 g/ha (pigweed [2]; 125 g ai/ha, 0 to 100 scale where 0 is no effect and 100 is complete control, read-out: Plant response rating, Pigweed)?
Its pest or weed control at 125 g/ha is 100%.

What about the pest or weed control at 500 g/ha (pigweed [2]; 240 h, 500 g ai/ha, 0 to 100 scale, 0 no effect, 100 complete control, approx. 10 days, read-out: Pigweed plant response rating) of the same molecule?
The pest or weed control at 500 g/ha was 100%.

And the “Plant response rating, Wheat” value (wheat; 125 g ai/ha, 0 to 100 scale where 0 is no effect and 100 is complete control)?
The value was 70.

And the plant injury at 500 g/ha (wheat; Triticum aestivum, pre-emergence, 240 h, 500 g ai/ha, 0 to 100 scale, 0 no effect, 100 complete control, approx. 10 days, read-out: Wheat plant response rating)?
Its plant injury at 500 g/ha is 100%.

And the pest or weed control at 125 g/ha (pigweed [3]; 125 g ai/ha)?
The pest or weed control at 125 g/ha was 100%.

And the pest or weed control at 500 g/ha (pigweed [3]; 500 g ai/ha)?
Its pest or weed control at 500 g/ha is 100%.

And the pest or weed control at 125 g/ha (velvetleaf; 125 g ai/ha)?
Its pest or weed control at 125 g/ha is 100%.

And the pest or weed control at 500 g/ha (velvetleaf; 500 g ai/ha)?
Its pest or weed control at 500 g/ha is 100%.

And the pest or weed control at 125 g/ha (blackgrass; 125 g ai/ha, postemergence, read-out: Plant response rating (0 to 100), Blackgrass)?
The pest or weed control at 125 g/ha was 35%.

What about the pest or weed control at 250 g/ha (blackgrass; 250 g ai/ha, postemergence, read-out: Plant response rating (0 to 100), Blackgrass) of the same molecule?
Its pest or weed control at 250 g/ha is 80%.

And the pest or weed control at 31 g/ha (blackgrass; Postemergence, 31 g ai/ha, scale 0 to 100 (0 no effect, 100 complete control), 13 to 15 days, read-out: Plant response rating, Blackgrass)?
The pest or weed control at 31 g/ha was 10%.

What about the pest or weed control at 62 g/ha (blackgrass; Postemergence, 62 g ai/ha, scale 0 to 100 (0 no effect, 100 complete control), read-out: Plant response rating, Blackgrass) of the same molecule?
The pest or weed control at 62 g/ha was 30%.

And the pest or weed control at 125 g/ha (galium; 125 g ai/ha, postemergence, read-out: Plant response rating (0 to 100), Galium)?
The pest or weed control at 125 g/ha was 80%.

And the pest or weed control at 250 g/ha (galium; 250 g ai/ha, postemergence, read-out: Plant response rating (0 to 100), Galium)?
Its pest or weed control at 250 g/ha is 95%.

And the pest or weed control at 31 g/ha (galium; Postemergence, 31 g ai/ha, scale 0 to 100 (0 no effect, 100 complete control), 13 to 15 days, read-out: Plant response rating, Galium)?
Its pest or weed control at 31 g/ha is 65%.

And the pest or weed control at 62 g/ha (galium; Postemergence, 62 g ai/ha, scale 0 to 100 (0 no effect, 100 complete control), read-out: Plant response rating, Galium)?
The pest or weed control at 62 g/ha was 75%.

And the pest or weed control at 125 g/ha (large (Lg) crabgrass; 125 g ai/ha, postemergence, read-out: Plant response rating (0 to 100), Crabgrass, Large)?
Its pest or weed control at 125 g/ha is 30%.

And the pest or weed control at 250 g/ha (large (Lg) crabgrass; 250 g ai/ha, postemergence, read-out: Plant response rating (0 to 100), Crabgrass, Large)?
The pest or weed control at 250 g/ha was 65%.

What about the pest or weed control at 31 g/ha (large (Lg) crabgrass; Postemergence, 31 g ai/ha, scale 0 to 100 (0 no effect, 100 complete control), 13 to 15 days, read-out: Plant response rating, Crabgrass, Large) of the same molecule?
The pest or weed control at 31 g/ha was 20%.

And the pest or weed control at 62 g/ha (large (Lg) crabgrass; Postemergence, 62 g ai/ha, scale 0 to 100 (0 no effect, 100 complete control), read-out: Plant response rating, Crabgrass, Large)?
Its pest or weed control at 62 g/ha is 20%.

What about the pest or weed control at 125 g/ha (johnsongrass; 125 g ai/ha, postemergence, read-out: Plant response rating (0 to 100), Johnsongrass) of the same molecule?
Its pest or weed control at 125 g/ha is 40%.

What about the pest or weed control at 250 g/ha (johnsongrass; 250 g ai/ha, postemergence, read-out: Plant response rating (0 to 100), Johnsongrass) of the same molecule?
The pest or weed control at 250 g/ha was 85%.

What about the pest or weed control at 31 g/ha (johnsongrass; Postemergence, 31 g ai/ha, scale 0 to 100 (0 no effect, 100 complete control), 13 to 15 days, read-out: Plant response rating, Johnsongrass) of the same molecule?
The pest or weed control at 31 g/ha was 5%.

What about the pest or weed control at 62 g/ha (johnsongrass; Postemergence, 62 g ai/ha, scale 0 to 100 (0 no effect, 100 complete control), read-out: Plant response rating, Johnsongrass) of the same molecule?
The pest or weed control at 62 g/ha was 10%.

What about the pest or weed control at 125 g/ha (lambsquarters; 125 g ai/ha, postemergence, read-out: Plant response rating (0 to 100), Lambsquarters) of the same molecule?
Its pest or weed control at 125 g/ha is 95%.

What about the pest or weed control at 250 g/ha (lambsquarters; 250 g ai/ha, postemergence, read-out: Plant response rating (0 to 100), Lambsquarters) of the same molecule?
Its pest or weed control at 250 g/ha is 98%.

What about the pest or weed control at 31 g/ha (lambsquarters; Postemergence, 31 g ai/ha, scale 0 to 100 (0 no effect, 100 complete control), 13 to 15 days, read-out: Plant response rating, Lambsquarters) of the same molecule?
Its pest or weed control at 31 g/ha is 90%.

What about the pest or weed control at 62 g/ha (lambsquarters; Postemergence, 62 g ai/ha, scale 0 to 100 (0 no effect, 100 complete control), read-out: Plant response rating, Lambsquarters) of the same molecule?
The pest or weed control at 62 g/ha was 95%.

What about the pest or weed control at 125 g/ha (barnyardgrass [4]; 125 g ai/ha, postemergence, read-out: Plant response rating (0 to 100), Barnyardgrass) of the same molecule?
The pest or weed control at 125 g/ha was 20%.

And the pest or weed control at 250 g/ha (barnyardgrass [4]; 250 g ai/ha, postemergence, read-out: Plant response rating (0 to 100), Barnyardgrass)?
The pest or weed control at 250 g/ha was 75%.

And the pest or weed control at 31 g/ha (barnyardgrass [4]; Postemergence, 31 g ai/ha, scale 0 to 100 (0 no effect, 100 complete control), 13 to 15 days, read-out: Plant response rating, Barnyardgrass)?
Its pest or weed control at 31 g/ha is 5%.

And the pest or weed control at 62 g/ha (barnyardgrass [4]; Postemergence, 62 g ai/ha, scale 0 to 100 (0 no effect, 100 complete control), read-out: Plant response rating, Barnyardgrass)?
The pest or weed control at 62 g/ha was 5%.

And the plant injury at 125 g/ha (oilseed rape; 125 g ai/ha, postemergence, read-out: Plant response rating (0 to 100), Oilseed Rape)?
Its plant injury at 125 g/ha is 50%.

And the plant injury at 250 g/ha (oilseed rape; 250 g ai/ha, postemergence, read-out: Plant response rating (0 to 100), Oilseed Rape)?
Its plant injury at 250 g/ha is 90%.

And the plant injury at 31 g/ha (oilseed rape; Postemergence, 31 g ai/ha, scale 0 to 100 (0 no effect, 100 complete control), 13 to 15 days, read-out: Plant response rating, Oilseed Rape)?
Its plant injury at 31 g/ha is 30%.

And the plant injury at 62 g/ha (oilseed rape; Postemergence, 62 g ai/ha, scale 0 to 100 (0 no effect, 100 complete control), read-out: Plant response rating, Oilseed Rape)?
Its plant injury at 62 g/ha is 50%.

And the pest or weed control at 125 g/ha (waterhemp; 125 g ai/ha, postemergence, read-out: Plant response rating (0 to 100), Waterhemp)?
Its pest or weed control at 125 g/ha is 90%.

What about the pest or weed control at 250 g/ha (waterhemp; 250 g ai/ha, postemergence, read-out: Plant response rating (0 to 100), Waterhemp) of the same molecule?
The pest or weed control at 250 g/ha was 100%.

And the pest or weed control at 31 g/ha (waterhemp; Postemergence, 31 g ai/ha, scale 0 to 100 (0 no effect, 100 complete control), 13 to 15 days, read-out: Plant response rating, Waterhemp)?
The pest or weed control at 31 g/ha was 75%.

What about the pest or weed control at 62 g/ha (waterhemp; Postemergence, 62 g ai/ha, scale 0 to 100 (0 no effect, 100 complete control), read-out: Plant response rating, Waterhemp) of the same molecule?
The pest or weed control at 62 g/ha was 80%.

What about the pest or weed control at 125 g/ha (wild oat; 125 g ai/ha, postemergence, read-out: Plant response rating (0 to 100), Oat, Wild) of the same molecule?
The pest or weed control at 125 g/ha was 20%.

And the pest or weed control at 250 g/ha (wild oat; 250 g ai/ha, postemergence, read-out: Plant response rating (0 to 100), Oat, Wild)?
The pest or weed control at 250 g/ha was 50%.

And the pest or weed control at 31 g/ha (wild oat; Postemergence, 31 g ai/ha, scale 0 to 100 (0 no effect, 100 complete control), 13 to 15 days, read-out: Plant response rating, Oat, Wild)?
Its pest or weed control at 31 g/ha is 10%.

And the pest or weed control at 62 g/ha (wild oat; Postemergence, 62 g ai/ha, scale 0 to 100 (0 no effect, 100 complete control), read-out: Plant response rating, Oat, Wild)?
Its pest or weed control at 62 g/ha is 15%.
